Test results published in the kinase profiling compilation of Christmann-Franck et al. (2016).

Tests used:
Assay in all cases: radiometric filter-binding kinase assay
[1] = test system: AKT2 (human), P31751 [S474D]
AURKA (human) = AURKA (human) (UniProt O14965)
RIPK2 (human) = RIPK2 (human) (UniProt O43353)
PIM3 (human) = PIM3 (human) (UniProt Q86V86)
RPS6KA1 KD1 KD2 (human) = RPS6KA1 KD1 KD2 (human) (UniProt Q15418)
PLK1 (human) = PLK1 (human) (UniProt P53350)
CDK2 CCNA2 (human) = CDK2 CCNA2 (human) (UniProt P20248+P24941)
[2] = biological target: PRKAA1 PRKAB2 PRKAG1 (human) (UniProt O43741+Q13131+P54619)
SYK (human) = SYK (human) (UniProt P43405)
CSNK2A1 (human) = CSNK2A1 (human) (UniProt P68400)
MAPK15 (human) = MAPK15 (human) (UniProt Q8TD08)
MKNK2 (human) = MKNK2 (human) (UniProt Q9HBH9)
LCK (mouse) = conditions: accession and sequence are those of the human protein
NEK6 (human) = NEK6 (human) (UniProt Q9HC98)
CHEK1 (human) = CHEK1 (human) (UniProt O14757)
HIPK2 (human) = HIPK2 (human) (UniProt Q9H2X6)
PIM1 (human) = PIM1 (human) (UniProt P11309)
[3] = test system: SGK1 (human), O00141 [S422D]
DYRK2 (human) = DYRK2 (human) (UniProt Q92630)
MINK1 (human) = MINK1 (human) (UniProt Q8N4C8)
MARK4 (human) = MARK4 (human) (UniProt Q96L34)
MELK (human) = MELK (human) (UniProt Q14680)
BRSK2 (human) = BRSK2 (human) (UniProt Q8IWQ3)
RPS6KA5 KD1 KD2 (human) = RPS6KA5 KD1 KD2 (human) (UniProt O75582)
PRKCA (human) = PRKCA (human) (UniProt P17252)
RPS6KA3 KD1 KD2 (human) = RPS6KA3 KD1 KD2 (human) (UniProt P51812)
[4] = test system: AKT1 (human), P31749 [S473D]
PAK4 (human) = PAK4 (human) (UniProt O96013)
NUAK1 (human) = NUAK1 (human) (UniProt O60285)
Sequence of NUAK1 (human) (O60285 whole entry, looked up): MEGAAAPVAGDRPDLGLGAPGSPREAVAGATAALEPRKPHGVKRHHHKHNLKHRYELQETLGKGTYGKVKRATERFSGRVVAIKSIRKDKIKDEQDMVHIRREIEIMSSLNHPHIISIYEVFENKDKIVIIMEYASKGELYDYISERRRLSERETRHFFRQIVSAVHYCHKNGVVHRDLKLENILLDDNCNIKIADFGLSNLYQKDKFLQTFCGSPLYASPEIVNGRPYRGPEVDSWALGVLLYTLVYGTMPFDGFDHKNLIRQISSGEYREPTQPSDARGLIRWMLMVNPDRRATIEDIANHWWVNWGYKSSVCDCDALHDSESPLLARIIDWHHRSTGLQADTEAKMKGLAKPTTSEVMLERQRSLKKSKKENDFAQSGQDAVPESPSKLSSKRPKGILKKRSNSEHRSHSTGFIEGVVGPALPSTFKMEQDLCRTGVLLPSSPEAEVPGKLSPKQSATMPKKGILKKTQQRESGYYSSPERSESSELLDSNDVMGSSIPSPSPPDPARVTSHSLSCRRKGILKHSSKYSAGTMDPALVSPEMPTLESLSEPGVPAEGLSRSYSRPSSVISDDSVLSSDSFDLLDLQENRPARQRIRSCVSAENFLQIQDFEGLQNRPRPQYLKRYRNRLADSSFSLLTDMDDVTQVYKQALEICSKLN

Sequence of AURKA (human) (O14965 whole entry, looked up): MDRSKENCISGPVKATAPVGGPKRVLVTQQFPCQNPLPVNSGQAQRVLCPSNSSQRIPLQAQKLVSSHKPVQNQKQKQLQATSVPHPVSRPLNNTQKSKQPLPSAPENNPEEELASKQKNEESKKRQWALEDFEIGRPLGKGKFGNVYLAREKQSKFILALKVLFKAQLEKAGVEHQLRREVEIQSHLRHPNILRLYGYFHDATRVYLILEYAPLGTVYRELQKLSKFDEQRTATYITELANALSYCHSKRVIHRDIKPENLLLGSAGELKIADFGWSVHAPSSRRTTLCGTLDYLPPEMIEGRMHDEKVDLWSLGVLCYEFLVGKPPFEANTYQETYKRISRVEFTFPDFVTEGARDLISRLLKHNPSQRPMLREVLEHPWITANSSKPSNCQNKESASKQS
Sequence of AKT2 (human), P31751 [S474D] (P31751 whole entry S474D, looked up): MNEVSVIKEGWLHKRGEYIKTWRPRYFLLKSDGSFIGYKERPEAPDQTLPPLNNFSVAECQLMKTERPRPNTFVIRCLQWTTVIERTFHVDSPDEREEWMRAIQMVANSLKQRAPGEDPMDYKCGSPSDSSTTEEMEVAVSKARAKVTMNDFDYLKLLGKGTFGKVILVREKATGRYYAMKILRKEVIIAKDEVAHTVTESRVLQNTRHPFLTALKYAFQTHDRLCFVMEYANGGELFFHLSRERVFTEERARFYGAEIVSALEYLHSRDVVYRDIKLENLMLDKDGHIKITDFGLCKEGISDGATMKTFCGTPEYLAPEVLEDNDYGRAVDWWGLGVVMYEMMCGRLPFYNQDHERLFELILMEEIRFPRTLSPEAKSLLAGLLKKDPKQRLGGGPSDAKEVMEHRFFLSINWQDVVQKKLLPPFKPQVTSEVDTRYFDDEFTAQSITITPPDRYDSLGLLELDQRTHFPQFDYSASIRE
Sequence of MAPK15 (human) (Q8TD08 whole entry, looked up): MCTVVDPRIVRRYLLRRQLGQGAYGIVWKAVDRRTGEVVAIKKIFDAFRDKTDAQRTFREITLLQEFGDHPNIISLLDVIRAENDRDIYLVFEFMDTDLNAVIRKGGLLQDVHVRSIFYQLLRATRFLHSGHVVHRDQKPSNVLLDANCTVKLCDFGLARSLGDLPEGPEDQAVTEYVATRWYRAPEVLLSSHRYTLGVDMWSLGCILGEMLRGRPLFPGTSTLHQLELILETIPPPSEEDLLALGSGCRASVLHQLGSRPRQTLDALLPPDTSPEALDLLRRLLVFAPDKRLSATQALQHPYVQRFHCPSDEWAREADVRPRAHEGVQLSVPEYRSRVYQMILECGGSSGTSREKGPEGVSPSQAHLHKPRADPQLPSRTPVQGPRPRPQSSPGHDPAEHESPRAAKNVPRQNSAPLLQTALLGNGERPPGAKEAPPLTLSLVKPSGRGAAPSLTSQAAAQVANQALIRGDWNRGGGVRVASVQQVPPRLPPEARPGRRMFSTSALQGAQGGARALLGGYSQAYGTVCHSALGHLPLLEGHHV
Sequence of AKT1 (human), P31749 [S473D] (P31749 whole entry S473D, looked up): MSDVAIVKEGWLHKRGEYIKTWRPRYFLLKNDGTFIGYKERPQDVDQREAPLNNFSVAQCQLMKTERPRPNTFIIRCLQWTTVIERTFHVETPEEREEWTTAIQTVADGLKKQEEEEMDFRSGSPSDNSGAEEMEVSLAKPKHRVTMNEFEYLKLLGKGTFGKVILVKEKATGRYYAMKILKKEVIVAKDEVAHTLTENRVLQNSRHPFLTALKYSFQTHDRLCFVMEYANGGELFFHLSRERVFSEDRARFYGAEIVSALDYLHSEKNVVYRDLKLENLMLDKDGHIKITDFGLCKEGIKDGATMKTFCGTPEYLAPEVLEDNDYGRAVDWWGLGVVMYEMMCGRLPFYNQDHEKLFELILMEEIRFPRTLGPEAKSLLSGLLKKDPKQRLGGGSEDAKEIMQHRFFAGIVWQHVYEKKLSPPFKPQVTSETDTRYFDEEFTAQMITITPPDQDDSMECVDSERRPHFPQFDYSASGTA
Sequence of MARK4 (human) (Q96L34 whole entry, looked up): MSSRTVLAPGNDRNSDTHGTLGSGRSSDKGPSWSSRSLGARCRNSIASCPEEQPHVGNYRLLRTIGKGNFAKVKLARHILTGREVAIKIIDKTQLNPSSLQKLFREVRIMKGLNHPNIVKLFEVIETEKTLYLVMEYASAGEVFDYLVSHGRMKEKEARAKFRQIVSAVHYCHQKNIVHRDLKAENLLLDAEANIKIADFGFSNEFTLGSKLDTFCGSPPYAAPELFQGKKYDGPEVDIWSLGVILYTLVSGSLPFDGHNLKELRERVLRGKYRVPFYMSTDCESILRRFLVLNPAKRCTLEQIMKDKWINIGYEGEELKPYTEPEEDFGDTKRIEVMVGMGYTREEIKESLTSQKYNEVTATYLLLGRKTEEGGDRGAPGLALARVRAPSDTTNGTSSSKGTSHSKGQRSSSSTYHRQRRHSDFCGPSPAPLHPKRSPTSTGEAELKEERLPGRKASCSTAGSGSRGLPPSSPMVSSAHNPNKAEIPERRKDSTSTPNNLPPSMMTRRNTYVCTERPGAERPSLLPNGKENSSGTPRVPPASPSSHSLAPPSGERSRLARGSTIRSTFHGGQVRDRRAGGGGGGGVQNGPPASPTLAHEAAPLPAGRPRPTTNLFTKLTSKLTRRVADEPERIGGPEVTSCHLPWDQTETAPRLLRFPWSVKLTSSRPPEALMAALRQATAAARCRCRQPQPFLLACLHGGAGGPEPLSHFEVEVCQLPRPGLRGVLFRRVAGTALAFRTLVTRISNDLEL
Sequence of MKNK2 (human) (Q9HBH9 whole entry, looked up): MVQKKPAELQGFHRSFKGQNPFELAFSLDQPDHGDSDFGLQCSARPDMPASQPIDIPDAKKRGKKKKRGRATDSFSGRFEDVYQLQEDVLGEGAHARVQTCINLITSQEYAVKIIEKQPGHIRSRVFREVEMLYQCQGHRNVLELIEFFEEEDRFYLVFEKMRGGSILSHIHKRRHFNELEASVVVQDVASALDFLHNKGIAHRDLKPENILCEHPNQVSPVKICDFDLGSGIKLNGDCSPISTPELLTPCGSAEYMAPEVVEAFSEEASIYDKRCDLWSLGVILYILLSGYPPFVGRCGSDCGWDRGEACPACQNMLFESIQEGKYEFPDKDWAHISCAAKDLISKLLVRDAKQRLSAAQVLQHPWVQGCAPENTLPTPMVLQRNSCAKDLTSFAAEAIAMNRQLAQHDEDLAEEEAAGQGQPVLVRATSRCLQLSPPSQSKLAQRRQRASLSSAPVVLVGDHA
Sequence of CSNK2A1 (human) (P68400 whole entry, looked up): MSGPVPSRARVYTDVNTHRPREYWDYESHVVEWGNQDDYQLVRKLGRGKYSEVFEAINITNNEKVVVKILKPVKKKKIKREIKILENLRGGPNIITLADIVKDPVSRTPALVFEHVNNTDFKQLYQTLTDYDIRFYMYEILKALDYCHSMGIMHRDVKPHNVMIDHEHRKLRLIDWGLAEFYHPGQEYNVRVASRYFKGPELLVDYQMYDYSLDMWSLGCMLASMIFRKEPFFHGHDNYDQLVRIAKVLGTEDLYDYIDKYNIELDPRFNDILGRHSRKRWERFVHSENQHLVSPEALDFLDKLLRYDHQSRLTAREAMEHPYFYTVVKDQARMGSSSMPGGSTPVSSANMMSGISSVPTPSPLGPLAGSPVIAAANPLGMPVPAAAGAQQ
Sequence of NEK6 (human) (Q9HC98 whole entry, looked up): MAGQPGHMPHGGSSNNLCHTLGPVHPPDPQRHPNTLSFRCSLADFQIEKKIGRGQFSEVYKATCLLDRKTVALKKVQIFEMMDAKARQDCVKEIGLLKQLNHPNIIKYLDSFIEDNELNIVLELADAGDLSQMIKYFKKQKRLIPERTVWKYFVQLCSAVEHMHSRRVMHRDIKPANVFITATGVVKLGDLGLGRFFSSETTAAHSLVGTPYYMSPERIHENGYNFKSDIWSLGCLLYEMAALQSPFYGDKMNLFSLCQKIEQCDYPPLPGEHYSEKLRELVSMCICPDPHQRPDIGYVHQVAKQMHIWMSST
Sequence of SGK1 (human), O00141 [S422D] (O00141 whole entry S422D, looked up): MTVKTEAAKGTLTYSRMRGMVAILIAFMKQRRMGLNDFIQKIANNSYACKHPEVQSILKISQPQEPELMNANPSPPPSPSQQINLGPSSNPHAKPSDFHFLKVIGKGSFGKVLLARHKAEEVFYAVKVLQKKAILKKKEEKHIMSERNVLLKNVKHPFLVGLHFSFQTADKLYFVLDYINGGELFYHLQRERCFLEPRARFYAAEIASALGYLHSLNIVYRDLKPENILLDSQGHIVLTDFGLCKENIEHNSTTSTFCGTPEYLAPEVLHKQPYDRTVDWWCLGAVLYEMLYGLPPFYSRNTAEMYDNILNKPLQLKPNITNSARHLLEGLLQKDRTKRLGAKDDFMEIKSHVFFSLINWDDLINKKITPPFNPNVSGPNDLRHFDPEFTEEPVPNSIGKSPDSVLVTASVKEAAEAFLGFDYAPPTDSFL

- residual activity ([1]; compound 0.01 µM): 125%
- residual activity ([1]; compound 0.1 µM): 118%
- residual activity ([1]; compound 1.0 µM): 100%
- residual activity (AURKA (human); compound 0.01 µM): 112%
- residual activity (AURKA (human); compound 0.1 µM): 115%
- residual activity (AURKA (human); compound 1.0 µM): 92%
- residual activity (RIPK2 (human); compound 0.01 µM): 110%
- residual activity (RIPK2 (human); compound 0.1 µM): 114%
- residual activity (RIPK2 (human); compound 1.0 µM): 107%
- residual activity (PIM3 (human); compound 0.01 µM): 105%
- residual activity (PIM3 (human); compound 0.1 µM): 112%
- residual activity (PIM3 (human); compound 1.0 µM): 97%
- residual activity (RPS6KA1 KD1 KD2 (human); compound 0.01 µM): 123%
- residual activity (RPS6KA1 KD1 KD2 (human); compound 0.1 µM): 113%
- residual activity (RPS6KA1 KD1 KD2 (human); compound 1.0 µM): 94%
- residual activity (PLK1 (human); compound 0.01 µM): 95%
- residual activity (PLK1 (human); compound 0.1 µM): 113%
- residual activity (CDK2 CCNA2 (human); compound 0.01 µM): 104%
- residual activity (CDK2 CCNA2 (human); compound 0.1 µM): 101%
- residual activity (CDK2 CCNA2 (human); compound 1.0 µM): 105%
- residual activity ([2]; compound 0.01 µM): 107%
- residual activity ([2]; compound 0.1 µM): 111%
- residual activity ([2]; compound 1.0 µM): 87%
- residual activity (SYK (human); compound 0.01 µM): 109%
- residual activity (SYK (human); compound 0.1 µM): 105%
- residual activity (SYK (human); compound 1.0 µM): 103%
- residual activity (CSNK2A1 (human); compound 0.01 µM): 103%
- residual activity (CSNK2A1 (human); compound 0.1 µM): 104%
- residual activity (CSNK2A1 (human); compound 1.0 µM): 94%
- residual activity (MKNK2 (human); compound 0.01 µM): 91%
- residual activity (MKNK2 (human); compound 0.1 µM): 100%
- residual activity (MKNK2 (human); compound 1.0 µM): 106%
- residual activity (LCK (mouse); compound 0.01 µM): 112%
- residual activity (LCK (mouse); compound 0.1 µM): 107%
- residual activity (LCK (mouse); compound 1.0 µM): 114%
- residual activity (NEK6 (human); compound 0.01 µM): 98%
- residual activity (NEK6 (human); compound 0.1 µM): 101%
- residual activity (NEK6 (human); compound 1.0 µM): 97%
- residual activity (CHEK1 (human); compound 0.01 µM): 111%
- residual activity (CHEK1 (human); compound 0.1 µM): 106%
- residual activity (CHEK1 (human); compound 1.0 µM): 104%
- residual activity (HIPK2 (human); compound 0.01 µM): 119%
- residual activity (HIPK2 (human); compound 0.1 µM): 124%
- residual activity (HIPK2 (human); compound 1.0 µM): 113%
- residual activity (PIM1 (human); compound 0.01 µM): 99%
- residual activity (PIM1 (human); compound 0.1 µM): 100%
- residual activity (PIM1 (human); compound 1.0 µM): 98%
- residual activity ([3]; compound 0.01 µM): 96%
- residual activity ([3]; compound 0.1 µM): 96%
- residual activity ([3]; compound 1.0 µM): 37%
- residual activity (DYRK2 (human); compound 0.01 µM): 100%
- residual activity (DYRK2 (human); compound 0.1 µM): 108%
- residual activity (DYRK2 (human); compound 1.0 µM): 102%
- residual activity (MINK1 (human); compound 0.01 µM): 121%
- residual activity (MINK1 (human); compound 0.1 µM): 110%
- residual activity (MINK1 (human); compound 1.0 µM): 105%
- residual activity (MARK4 (human); compound 0.01 µM): 106%
- residual activity (MARK4 (human); compound 0.1 µM): 114%
- residual activity (MARK4 (human); compound 1.0 µM): 102%
- residual activity (MELK (human); compound 0.01 µM): 115%
- residual activity (MELK (human); compound 0.1 µM): 77%
- residual activity (MELK (human); compound 1.0 µM): 23%
- residual activity (BRSK2 (human); compound 0.01 µM): 114%
- residual activity (BRSK2 (human); compound 0.1 µM): 110%
- residual activity (RPS6KA5 KD1 KD2 (human); compound 0.01 µM): 102%
- residual activity (RPS6KA5 KD1 KD2 (human); compound 0.1 µM): 100%
- residual activity (RPS6KA5 KD1 KD2 (human); compound 1.0 µM): 94%
- residual activity (PRKCA (human); compound 0.01 µM): 104%
- residual activity (PRKCA (human); compound 0.1 µM): 105%
- residual activity (PRKCA (human); compound 1.0 µM): 94%
- residual activity (RPS6KA3 KD1 KD2 (human); compound 0.01 µM): 96%
- residual activity (RPS6KA3 KD1 KD2 (human); compound 0.1 µM): 97%
- residual activity (RPS6KA3 KD1 KD2 (human); compound 1.0 µM): 79%
- residual activity ([4]; compound 0.01 µM): 179%
- residual activity ([4]; compound 0.1 µM): 117%
- residual activity ([4]; compound 1.0 µM): 97%
- residual activity (PAK4 (human); compound 0.01 µM): 108%
- residual activity (PAK4 (human); compound 0.1 µM): 117%
- residual activity (PAK4 (human); compound 1.0 µM): 106%
- residual activity (NUAK1 (human); compound 0.01 µM): 120%
- residual activity (NUAK1 (human); compound 0.1 µM): 105%
- residual activity (NUAK1 (human); compound 1.0 µM): 47%
Structure (SMILES): CNc1nc(-c2ccc3c(N)n[nH]c3c2)cc(N2C[C@@H](C(=O)NC3CCCCC3)CC[C@H]2C)n1
- residual activity (MAPK15 (human); compound 0.01 µM): 106%
- residual activity (MAPK15 (human); compound 0.1 µM): 117%
- residual activity (MAPK15 (human); compound 1.0 µM): 107%
